Experimental data from ChEMBL document CHEMBL1177792, “Pre-clinical characterization of aryloxypyridine amides as histamine H3 receptor antagonists: identification of candidates for clinical development” (Bioorg Med Chem Lett, 2010).
pIC50: −log10 of the molar value. Activity calls are given as the source filed them. The rule behind the calls is not given here.

How the values were obtained:
[1] = Metabolic stability in rat liver microsomes assessed as compound remaining after 30 mins; type: ADME, Microsome; conditions: read-out: Stability
[2] = Metabolic stability in human liver microsomes assessed as compound remaining after 30 mins; type: ADME, Microsome; conditions: read-out: Stability
[3] = system: Rattus norvegicus; assay: Ex vivo receptor occupancy of histamine H3 receptor in Wistar rat brain at 10 mg/kg, po after 1 hr by autoradiography; type: functional
[4] = Drug level in Wistar rat brain at 10 mg/kg, po after 1 hr; type: ADME, organism-based; design: dose 10 mg/kg, route oral; conditions: read-out: Drug uptake
[5] = Plasma concentration in Wistar rat at 10 mg/kg, po after 1 hr; type: ADME, organism-based; design: dose 10 mg/kg, route oral; conditions: read-out: Drug uptake
[6] = Clearance in Sprague-Dawley rat at 1 mg/kg, iv and 10 mg/kg, po; type: ADME, organism-based; conditions: in vivo
[7] = Volume of distribution at steady state in Sprague-Dawley rat at 1 mg/kg, iv and 10 mg/kg, po; type: ADME, organism-based; conditions: in vivo, read-out: Vdss
[8] = Half life in Sprague-Dawley rat at 1 mg/kg, iv and 10 mg/kg, po; type: ADME, organism-based; conditions: in vivo
[9] = Bioavailability in Sprague-Dawley rat at 1 mg/kg, iv and 10 mg/kg, po; type: ADME, organism-based; conditions: in vivo
[10] = Clearance in Beagle dog at 1 mg/kg, iv and 5 mg/kg, po; type: ADME, organism-based, Canis lupus familiaris; conditions: in vivo
[11] = Volume of distribution at steady state in Beagle dog at 1 mg/kg, iv and 5 mg/kg, po; type: ADME, organism-based, Canis lupus familiaris; conditions: in vivo, read-out: Vdss
[12] = Half life in Beagle dog at 1 mg/kg, iv and 5 mg/kg, po; type: ADME, organism-based, Canis lupus familiaris; conditions: in vivo
[13] = Bioavailability in Beagle dog at 1 mg/kg, iv and 5 mg/kg, po; type: ADME, organism-based, Canis lupus familiaris; conditions: in vivo
[14] = Clearance in BALB/c mouse at 1 mg/kg, iv and 10 mg/kg, po; type: ADME, organism-based; conditions: in vivo
[15] = Volume of distribution at steady state in BALB/c mouse at 1 mg/kg, iv and 10 mg/kg, po; type: ADME, organism-based; conditions: in vivo, read-out: Vdss
[16] = Half life in BALB/c mouse at 1 mg/kg, iv and 10 mg/kg, po; type: ADME, organism-based; conditions: in vivo
[17] = Bioavailability in BALB/c mouse at 1 mg/kg, iv and 10 mg/kg, po; type: ADME, organism-based; conditions: in vivo
[18] = biological target: T1, Voltage-gated inwardly rectifying potassium channel KCNH2 (Homo sapiens, UniProt Q12809); assay: Displacement of radiolabeled astemizole from human ERG
[19] = biological target: hERG (KCNH2) (Homo sapiens, UniProt Q12809); assay: Displacement of radiolabeled astemizole from human ERG at 10 uM; conditions: probe radiolabeled astemizole
[20] = biological target: T1, Voltage-gated inwardly rectifying potassium channel KCNH2; assay: Inhibition of human ERG by patch clamp technique
[21] = Permeability from apical to basolateral side of human Caco-2 cells; type: ADME, cell-based; conditions: read-out: permeability
[22] = Permeability from basolateral to apical side of human Caco-2 cells; type: ADME, cell-based; conditions: read-out: permeability
[23] = Solubility in simulated gastric fluid; type: physicochemical
[24] = Solubility in water; type: physicochemical
[25] = biological target: Cytochrome P450 3A4 (Homo sapiens, UniProt P08684); assay: Inhibition of CYP3A4 at 10 uM; type: ADME
[26] = biological target: Cytochrome P450 2D6 (Homo sapiens, UniProt P10635); assay: Inhibition of CYP2D6 at 10 uM; type: ADME
[27] = biological target: Cytochrome P450 2C9 (Homo sapiens, UniProt P11712); assay: Inhibition of CYP2C9 at 10 uM; type: ADME
[28] = system: Rattus norvegicus; assay: Ex vivo receptor occupancy of histamine H3 receptor in Wistar rat brain at 3 mg/kg, po after 30 mins by [3H]R-alpha-methylhistamine bingind autoradiography; type: functional
[29] = Plasma concentration in Wistar rat at 3 mg/kg, po after 30 mins; type: ADME, organism-based; design: dose 3 mg/kg, route oral; conditions: read-out: Drug uptake
[30] = Fraction unbound in rat plasma; type: ADME, cell-free
[31] = system: Rattus norvegicus; assay: Increase of histamine release in rat frontal cortex at 0.3 to 3 mg/kg, sc measured up to 300 mins; type: functional, organism-based
[32] = system: Brain; assay: Drug level in rat brain at 3 mg/kg, sc; type: ADME, organism-based; design: dose 3 mg/kg, route subcutaneous; conditions: in vivo, read-out: Drug uptake
[33] = system: Plasma; assay: Plasma concentration in rat at 3 mg/kg, sc; type: ADME, organism-based; design: dose 3 mg/kg, route subcutaneous; conditions: in vivo, read-out: Drug uptake
[34] = system: Rattus norvegicus; assay: Increase of wake duration in rat at 10 mg/kg, sc; type: functional, organism-based; design: dose 10 mg/kg
[35] = system: Rattus norvegicus; assay: Increase of wake duration in rat at 10 mg/kg, s.c.

T1 sequence (Q12809 whole entry): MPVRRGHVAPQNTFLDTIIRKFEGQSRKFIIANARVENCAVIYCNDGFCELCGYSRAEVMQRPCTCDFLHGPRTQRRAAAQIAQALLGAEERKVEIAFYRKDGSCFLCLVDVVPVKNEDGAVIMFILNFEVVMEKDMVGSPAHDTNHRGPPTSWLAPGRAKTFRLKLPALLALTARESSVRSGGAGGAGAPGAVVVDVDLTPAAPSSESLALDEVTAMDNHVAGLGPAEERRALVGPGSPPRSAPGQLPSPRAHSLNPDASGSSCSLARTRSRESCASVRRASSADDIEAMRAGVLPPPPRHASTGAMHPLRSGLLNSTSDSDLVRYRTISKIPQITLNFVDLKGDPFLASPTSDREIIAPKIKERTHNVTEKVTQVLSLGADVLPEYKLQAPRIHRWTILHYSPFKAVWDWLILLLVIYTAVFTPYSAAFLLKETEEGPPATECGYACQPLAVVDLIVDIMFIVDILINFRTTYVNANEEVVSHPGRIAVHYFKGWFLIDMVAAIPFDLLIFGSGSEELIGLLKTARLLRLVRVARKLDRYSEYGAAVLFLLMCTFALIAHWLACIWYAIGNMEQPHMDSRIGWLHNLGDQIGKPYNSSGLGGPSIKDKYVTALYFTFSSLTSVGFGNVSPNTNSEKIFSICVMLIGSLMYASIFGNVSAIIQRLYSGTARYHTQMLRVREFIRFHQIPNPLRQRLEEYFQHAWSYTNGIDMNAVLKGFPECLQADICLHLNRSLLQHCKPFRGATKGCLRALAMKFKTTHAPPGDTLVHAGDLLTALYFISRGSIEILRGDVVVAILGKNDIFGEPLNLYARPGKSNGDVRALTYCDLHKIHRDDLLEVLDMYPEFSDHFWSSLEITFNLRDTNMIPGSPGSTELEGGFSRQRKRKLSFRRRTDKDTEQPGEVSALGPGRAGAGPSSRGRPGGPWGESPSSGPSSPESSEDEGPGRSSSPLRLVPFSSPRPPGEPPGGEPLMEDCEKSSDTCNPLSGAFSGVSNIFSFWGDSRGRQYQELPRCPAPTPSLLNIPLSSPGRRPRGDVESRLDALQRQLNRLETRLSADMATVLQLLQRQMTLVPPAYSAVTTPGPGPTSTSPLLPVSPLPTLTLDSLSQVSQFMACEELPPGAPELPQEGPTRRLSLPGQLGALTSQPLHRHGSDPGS
Chain of Cytochrome P450 2C9 (P11712 whole entry): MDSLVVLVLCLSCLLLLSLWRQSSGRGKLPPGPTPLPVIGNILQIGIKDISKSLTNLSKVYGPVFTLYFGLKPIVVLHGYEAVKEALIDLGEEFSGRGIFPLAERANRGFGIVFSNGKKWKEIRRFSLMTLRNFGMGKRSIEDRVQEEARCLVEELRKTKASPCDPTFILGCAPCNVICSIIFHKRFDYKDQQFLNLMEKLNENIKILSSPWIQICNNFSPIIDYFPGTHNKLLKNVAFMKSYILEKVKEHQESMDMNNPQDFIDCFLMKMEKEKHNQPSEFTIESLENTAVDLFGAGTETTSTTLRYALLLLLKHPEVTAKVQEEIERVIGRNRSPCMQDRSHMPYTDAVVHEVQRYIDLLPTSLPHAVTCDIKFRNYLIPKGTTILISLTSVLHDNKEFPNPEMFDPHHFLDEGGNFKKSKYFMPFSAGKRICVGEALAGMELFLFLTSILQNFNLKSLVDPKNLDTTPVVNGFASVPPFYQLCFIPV
Chain of Cytochrome P450 2D6 (P10635 whole entry): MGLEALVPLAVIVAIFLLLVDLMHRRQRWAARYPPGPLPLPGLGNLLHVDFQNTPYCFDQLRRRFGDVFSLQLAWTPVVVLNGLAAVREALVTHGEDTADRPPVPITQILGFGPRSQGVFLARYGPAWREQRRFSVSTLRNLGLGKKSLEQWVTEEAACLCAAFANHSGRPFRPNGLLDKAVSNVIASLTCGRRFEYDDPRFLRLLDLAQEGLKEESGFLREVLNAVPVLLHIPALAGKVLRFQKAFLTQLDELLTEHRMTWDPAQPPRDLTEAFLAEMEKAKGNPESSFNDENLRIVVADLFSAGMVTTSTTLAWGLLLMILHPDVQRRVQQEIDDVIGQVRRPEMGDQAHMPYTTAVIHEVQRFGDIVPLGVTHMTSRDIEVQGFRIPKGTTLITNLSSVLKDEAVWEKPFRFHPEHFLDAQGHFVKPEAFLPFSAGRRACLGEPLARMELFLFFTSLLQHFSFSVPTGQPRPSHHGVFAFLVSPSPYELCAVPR
Chain of hERG (KCNH2) (Q12809 whole entry): as the sequence (Q12809 whole entry) above
Chain of Cytochrome P450 3A4 (P08684 whole entry): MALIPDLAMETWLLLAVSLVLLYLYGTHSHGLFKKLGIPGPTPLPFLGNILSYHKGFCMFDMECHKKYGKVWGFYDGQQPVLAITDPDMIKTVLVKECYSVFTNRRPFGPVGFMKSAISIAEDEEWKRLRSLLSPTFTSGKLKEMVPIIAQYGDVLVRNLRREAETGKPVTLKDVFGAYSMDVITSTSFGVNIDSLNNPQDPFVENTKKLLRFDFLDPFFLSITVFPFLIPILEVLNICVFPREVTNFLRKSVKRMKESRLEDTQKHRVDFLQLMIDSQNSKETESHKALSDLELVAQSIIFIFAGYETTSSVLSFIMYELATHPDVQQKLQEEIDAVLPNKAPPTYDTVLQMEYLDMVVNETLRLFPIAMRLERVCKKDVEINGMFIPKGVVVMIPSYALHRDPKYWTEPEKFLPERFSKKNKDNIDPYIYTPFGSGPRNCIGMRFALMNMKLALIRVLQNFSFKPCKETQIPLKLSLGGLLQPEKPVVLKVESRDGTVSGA

remaining at 0.5 h [1]: 63%
remaining at 0.5 h [2]: 87%
concentration at 1 h [4]: 2650 nM
concentration at 1 h [5]: 1480 nM
clearance [6]: 49 mL/min/kg
Vd [7]: 3.5 L/kg
half-life [8]: 1.2 h
bioavailability [9]: 50%
clearance [10]: 35 mL/min/kg
Vd [11]: 7.2 L/kg
half-life [12]: 2.6 h
bioavailability [13]: 28%
clearance [14]: 94 mL/min/kg
Vd [15]: 8.7 L/kg
half-life [16]: 1.1 h
bioavailability [17]: 28%
Papp A→B [21]: 78 ×10⁻⁶ cm/s
Papp B→A [22]: 36 ×10⁻⁶ cm/s
solubility [23]: > 5000 µg/mL
solubility [24]: > 5000 µg/mL
Activity [25]: Not Active
Activity [26]: Not Active
Activity [27]: Not Active
concentration at 0.5 h [29]: 150 ng/mL
fraction unbound [30]: 0.15
concentration [32]: 956 nM
concentration [33]: 257 nM
Structure (SMILES): O=C(c1ccc(Oc2ccc(F)cc2)nc1)N1CCCN(C2CCC2)CC1 [JNJ-39220675]
Activity [3]: 94%
pIC50 [18]: < 5.00
inhibition at 10 µM [19]: 0%
pIC50 [20]: 5.46
Activity [28]: 90%
Activity [31]: Active
Activity [34]: Active
Activity [35]: Active
